Test [1] addresses T1, eNOS cytochrome c reductase activity (Rattus norvegicus, UniProt Q62600).
T1 construct: endogenous in cells; host or cells: primary liver sinusoidal endothelial cells from male Sprague-Dawley rats (normal or bile-duct-ligated)
T1 sequence (Q62600 1-1202): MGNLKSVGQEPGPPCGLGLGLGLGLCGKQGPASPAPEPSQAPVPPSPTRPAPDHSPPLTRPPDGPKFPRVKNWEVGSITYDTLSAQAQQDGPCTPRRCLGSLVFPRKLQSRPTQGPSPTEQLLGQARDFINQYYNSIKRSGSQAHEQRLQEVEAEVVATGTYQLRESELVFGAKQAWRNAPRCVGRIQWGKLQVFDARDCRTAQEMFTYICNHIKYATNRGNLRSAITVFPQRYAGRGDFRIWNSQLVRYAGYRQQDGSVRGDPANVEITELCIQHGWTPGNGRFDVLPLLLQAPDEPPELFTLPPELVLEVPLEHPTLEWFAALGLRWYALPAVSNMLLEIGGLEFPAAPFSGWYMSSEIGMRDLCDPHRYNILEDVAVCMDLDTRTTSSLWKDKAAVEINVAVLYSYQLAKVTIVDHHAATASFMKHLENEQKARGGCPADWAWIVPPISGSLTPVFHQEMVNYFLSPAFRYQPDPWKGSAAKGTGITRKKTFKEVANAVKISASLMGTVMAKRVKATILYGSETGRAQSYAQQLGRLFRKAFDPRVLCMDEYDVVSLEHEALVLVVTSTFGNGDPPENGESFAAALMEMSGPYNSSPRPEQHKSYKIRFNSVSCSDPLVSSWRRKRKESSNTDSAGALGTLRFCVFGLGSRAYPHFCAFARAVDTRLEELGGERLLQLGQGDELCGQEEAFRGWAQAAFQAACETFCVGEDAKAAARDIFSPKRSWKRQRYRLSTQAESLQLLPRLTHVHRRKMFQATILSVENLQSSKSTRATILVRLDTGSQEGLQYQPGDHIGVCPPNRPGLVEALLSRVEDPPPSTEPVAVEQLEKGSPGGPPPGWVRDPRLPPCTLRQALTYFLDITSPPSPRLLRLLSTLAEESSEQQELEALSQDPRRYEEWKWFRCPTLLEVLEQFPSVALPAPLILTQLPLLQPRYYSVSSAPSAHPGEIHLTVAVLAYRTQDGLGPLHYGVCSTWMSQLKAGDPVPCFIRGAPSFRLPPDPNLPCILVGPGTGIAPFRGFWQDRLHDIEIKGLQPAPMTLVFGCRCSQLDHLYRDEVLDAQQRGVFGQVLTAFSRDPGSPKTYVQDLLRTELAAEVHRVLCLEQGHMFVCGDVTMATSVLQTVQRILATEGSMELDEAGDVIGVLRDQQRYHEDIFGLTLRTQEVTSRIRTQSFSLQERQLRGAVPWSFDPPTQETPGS
Nature of the test: NADPH-dependent cytochrome c reductase assay in sinusoidal endothelial cell lysates. It is filed as cell-based. How it is done: Cell isolation and culture. Sinusoidal endothelial cells were isolated from male Sprague-Dawley rats (450-500 g) (Harlan, Indianapolis, Ind.). In brief, after in situ perfusion of the liver with 20 mg/100 mg pronase (Roche Molecular Biochemicals, Indianapolis, Ind.), followed by collagenase (Worthington Biochemical, Lakewood, N.J.), dispersed cell suspensions were removed from a layered discontinuous density gradient of 8.2 and 15.6% Accudenz (Accurate Chemical and Scientific, Westbury, N.Y.), further purified by centrifugal elutriation (18 ml/min flow), and were grown in medium containing 20% serum (10% horse/calf). The purity of endothelial cells was documented by their uptake of fluorescently labeled di-l-acetoacetylated low-density lipoprotein as described (21). Only primary sinusoidal endothelial isolates of >95% purity were used for study. Experiments were performed with cells frorrr a minimum three different isolations (for all experiments).
NOS activity assay. NOS activity from sinusoidal endothelial cell lysates was assessed by measuring the conversion of L-[3H]arginine to L-[3H]citrulline as described (6) per the manufacturer's instructions (Cayman Chemical). […] Radiolabeled counts per minute of generated L-citrulline were measured and used to determine L-NAME-inhibitable NOS activity (thus, each experiment included total counts and background counts). […] The reductase activities of sinusoidal endothelial cells with or without cicletanine exposure were determined using the NADPH-dependent cytochrome c assay. […] The reduction of cytochrome c was monitored at 550 nm at 25° C. […] Turnover number was calculated using the absorbance change during this 30-s interval and an extinction coefficient of 0.021/μM.

For another test, the system named is protein kinase G (PKG). Nature of the test: Phospho-VASP immunoblotting for PKG activity in stellate cells alone or cocultured with sinusoidal endothelial cells. The format is cell-based, rat. As for the experimental part: For coculture experiments, freshly isolated stellate cells and freshly isolated sinusoidal endothelial cells were isolated separately and mixed together on collagen-coated plates and cultured for 5 days. Sinusoidal endothelial cells were plated at a density of 200,000 cells/cm2, and stellate cells were at a density of 65,000 cells/cm2.
Immunoblotting, Immunoblotting was performed by using specified primary antibodies, including anti-eNOS antibody (1:1,000; BD Transduction Laboratories, San Jose, Calif.), anti-phospho-eNOS-Ser^1177 (1:1,000; BD Transduction Laboratories or Cell Signaling Technology), anti-phospho-Akt, anti-Akt (Cell Signaling Technology, Beverly, Mass.), and horseradish peroxidase-conjugated secondary antibody. Specific signals were visualized using enhanced chemiluminescence as per the manufacturer's instructions and were scanned and quantitated with standard software.

These results are taken from patent publication US20170056380A1, “Systems, Methods, Techniques, and Compounds in Research and Treatment of Portal Hypertension and other Conditions” (priority 2014, published 2017).

In the case of `Cc1ncc2c(c1O)COC2c1ccc(Cl)cc1` (centres unmarked) [cicletanine, 3-(4-chlorophenyl)-1,3-dihydro-7-hydroxy-6-methylfuro-(3,4-c) pyridine], the “rate of cytochrome c reduction compared with no cicletanine treatment” value in test [1] (CaM stimulation) and in test [1] (basal level) was “twofold more” each time. Besides, the “cytochrome c reductase activity” value in test [1] (cicletanine 100 nM, 2 h) is recorded as “significant increase”. Moreover, the VASP phosphorylation entry in the test with protein kinase G (PKG) (stellate cells alone) is reported as “did not alter”; in the test on protein kinase G (PKG) (stellate cells cocultured with sinusoidal endothelial cells), “stimulated”.
